Laboratory results from patent US4419123A, “Herbicidal 4-trifluoromethyl-3'-carbon-substituted-4'-substituted diphenyl ethers” (Rohm and Haas Company, priority 1981, dated 1983).

Tests used:
[1] = Preemergence herbicidal activity (% control) against monocot weeds; type: in vivo; conditions: pre-emergence, 336 h, average, about two weeks after application, read-out: Herbicidal activity (% control), preemergence, monocots; for activity at 2241.7 g/ha: 2 lb./A.; for activity at 4483.4 g/ha: 4 lb./A.; for activity at 11208.5 g/ha: 10 lb./A.
Source text: (§1) barnyardgrass (Echinochloa crusgalli) crabgrass (Digitaria spp.) nutsedge (Cyperus esculentus)
(§2) At 2 and 4 pounds per acre:
(§3) **Bermudagrass (Cynodon dactylon)
(§4) *downy brome (Bromus tectorum) foxtail (Setaria faberii)
(§5) Johnsongrass (Sorghum halepense) […]
(§6) quackgrass (Agropyron repens)
(§7) *ryegrass (Lolium perenne)
(§8) *wild oats (Avena factua)
(§9) *yellow millet (Panicum miliaceum)
(§10) The following test procedure is employed.

[2] = Postemergence herbicidal activity (% control) against monocot weeds; type: in vivo; conditions: post-emergence, 336 h, average, about two weeks after application, read-out: Herbicidal activity (% control), postemergence, monocots; for activity at 2241.7 g/ha: 2 lb./A.; for activity at 4483.4 g/ha: 4 lb./A.; for activity at 11208.5 g/ha: 10 lb./A.
Source text: as §1, §2, §3, §4, §5, §6, §7, §8, §9, §10

[3] = system: corn; experiment: Crop tolerance (selective herbicidal activity), corn; type: in vivo; conditions: postemergence applications
Procedure: as §10
(§11) Following the general test procedure of Example 37, diphenyl ethers are evaluated for significant tolerance (as shown by 50% or less kill of the test crop at levels of application which give more than 50% kill of many or all of the weeds of Example 73) towards some or all of the following common agronomic crops (not all compounds tested against all crops): alfalfa, snapbeans, corn, cotton, cucumbers, peanuts, rape, rice, safflower, soybeans, tomatoes, and wheat.

[4] = system: peanuts; experiment: Crop tolerance (selective herbicidal activity), peanuts; type: in vivo
Procedure: as §10, §11

[5] = system: soybeans; experiment: Crop tolerance (selective herbicidal activity), soybeans; type: in vivo; conditions: preemergence applications
Procedure: as §10, §11

[6] = Preemergence herbicidal activity (% control) against dicot weeds; conditions: pre-emergence, 336 h; for activity at 2241.7 g/ha: read-out: Herbicidal activity (% control), preemergence, dicots, 2 lb./A., average, about two weeks after application; for activity at 4483.4 g/ha: read-out: Herbicidal activity (% control), preemergence, dicots, 4 lb./A., average, about two weeks after application; for activity at 11208.5 g/ha: read-out: Herbicidal activity (% control), preemergence, dicots, 10 lb./A., average, about two weeks after application
[7] = Postemergence herbicidal activity (% control) against dicot weeds; conditions: post-emergence, 336 h; for activity at 2241.7 g/ha: read-out: Herbicidal activity (% control), postemergence, dicots, 2 lb./A., average, about two weeks after application; for activity at 4483.4 g/ha: read-out: Herbicidal activity (% control), postemergence, dicots, 4 lb./A., average, about two weeks after application
[8] = system: rice; experiment: Crop tolerance (selective herbicidal activity), rice; type: in vivo; conditions: postemergence applications or applications on transplanted rice
Procedure: as §10, §11

Compound	activity at 2241.7 g/ha [1] [%]	activity at 4483.4 g/ha [1] [%]	activity at 2241.7 g/ha [2] [%]	activity at 4483.4 g/ha [2] [%]	Tolerance to corn [3]	Tolerance to peanuts ([4]; preemergence applications)	Tolerance to soybeans [5]	activity at 2241.7 g/ha [6] [%]	activity at 4483.4 g/ha [6] [%]	activity at 2241.7 g/ha [7] [%]	activity at 4483.4 g/ha [7] [%]	Tolerance to rice [8]	Tolerance to peanuts ([4]; postemergence applications)	activity at 11208.5 g/ha [1] [%]	activity at 11208.5 g/ha [2] [%]	activity at 11208.5 g/ha [6] [%]
COC(=O)c1cc(Oc2ccc(C(F)(F)F)cc2Cl)ccc1[N+](=O)[O-] [Example 49, 2-chloro-α,α,α-trifluoro-p-tolyl-3-carbomethoxy-4-nitrophenyl ether]	100	92	77	86	Tolerance (significant tolerance (as shown by 50% or less kill of the test crop at levels of application which give more than 50% kill of many or all of the weeds of Example 73))	Tolerance (significant tolerance (as shown by 50% or less kill of the test crop at levels of application which give more than 50% kill of many or all of the weeds of Example 73))	Tolerance (significant tolerance (as shown by 50% or less kill of the test crop at levels of application which give more than 50% kill of many or all of the weeds of Example 73))	100	95	100	100					
CN(C)c1cc(Oc2ccc(C(F)(F)F)cc2Cl)ccc1[N+](=O)[O-] [Example 20, 2-chloro-α,α,α-trifluoro-p-tolyl-3-dimethylamino-4-nitrophenyl ether]	80	88	80	78				93	99	97	88	Tolerance (significant tolerance (as shown by 50% or less kill of the test crop at levels of application which give more than 50% kill of many or all of the weeds of Example 73))				
O=[N+]([O-])c1ccc(Oc2ccc(C(F)(F)F)cc2Cl)cc1Cl [Example 37, 2-chloro-α,α,α-trifluoro-p-tolyl-3-chloro-4-nitrophenyl ether]	100	99	100	92					100		100		Tolerance (significant tolerance (as shown by 50% or less kill of the test crop at levels of application which give more than 50% kill of many or all of the weeds of Example 73))			
CCN(C(=O)NC)c1cc(Oc2ccc(C(F)(F)F)cc2Cl)ccc1[N+](=O)[O-] [Example 55, 2-Chloro-α,α,α-trifluoro-p-tolyl-3-(3-methyl-1-ethylureido)-4-nitrophenyl ether]		91	31	69					73	96	95					
CCCOc1cc(Oc2ccc(C(F)(F)F)cc2Cl)ccc1[N+](=O)[O-] [Example 5]		84		99					78		100			97	100	100
CCOC(=O)COc1cc(Oc2ccc(C(F)(F)F)cc2Cl)ccc1[N+](=O)[O-] [Example 24]	62	91	84	86				97	68	100	99					
O=C(O)COc1cc(Oc2ccc(C(F)(F)F)cc2Cl)ccc1[N+](=O)[O-] [Example 23]	55	90	71	82				87	64	100	100					
CCSC(=O)N(C(=O)SCC)c1cc(Oc2ccc(C(F)(F)F)cc2Cl)ccc1[N+](=O)[O-] [Example 46]	34	0	0	0				87	20	4	30					
O=[N+]([O-])c1ccc(Oc2ccc(C(F)(F)F)cc2Cl)cc1N1CCOCC1 [Example 28, 2-chloro-α,α,α-trifluoro-p-tolyl-3-morpholino-4-nitrophenyl ether]	79	74	73	73					95	100	99					
CN(CCO)c1cc(Oc2ccc(C(F)(F)F)cc2Cl)ccc1[N+](=O)[O-] [Example 43]	99	0	61	2				100	48	80	47					
C#CCCOc1cc(Oc2ccc(C(F)(F)F)cc2Cl)ccc1[N+](=O)[O-] [Example 29]	66	74	97	79				84	73	100	100					
O=C(CCl)Nc1cc(Oc2ccc(C(F)(F)F)cc2Cl)ccc1[N+](=O)[O-] [Example 35, 2-chloro-α,α,α-trifluoro-p-tolyl-3-chloroacetamido-4-nitrophenyl ether]	60	40	63	45				72		80	98					
C=CCOc1cc(Oc2ccc(C(F)(F)F)cc2Cl)ccc1[N+](=O)[O-] [Example 12]	72	86	99	77				93	96	100	100					
CCOc1cc(Oc2ccc(C(F)(F)F)cc2C#N)ccc1[N+](=O)[O-] [Example 7, 2-Cyano-α,α,α-trifluoro-p-tolyl-3-ethoxy-4-nitrophenyl ether]	65	65	82	75				54	57	80	77			61	100	60
CCOCCOc1cc(Oc2ccc(C(F)(F)F)cc2Cl)ccc1[N+](=O)[O-] [Example 16]	67	86	82	77				75	94	94	96					
CNC(=O)Nc1cc(Oc2ccc(C(F)(F)F)cc2Cl)ccc1[N+](=O)[O-] [Example 44]	0	66	7	60				17	96	10	98					
Cc1cc(Oc2ccc(C(F)(F)F)cc2C#N)ccc1[N+](=O)[O-] [Example 9]	81	90	82	97				67	66	75	81			99	100	92
